Data reported in PubChem BioAssay AID1963975 (Molecular Pharmacology Branch, DTP, NCI, 2024).
Blank lines part the entries; values can stand above or below the molecule they belong to.

Tested on: 624824-186-R-J2-PDC multicell spheroids, viability
Experiment: Anticancer human tumor 624824-186-R-J2-PDC patient-derived colon adenocarcinoma cell line growth inhibition [PI3K]
Settings: for IC50: curve of first compound; for viability, T/C: stronger effect = lower value
Procedure, shortened: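 Three cell types, namely tumor cells, endothelial cells and mesenchymal stem cells, formed each spheroid. Combinations with four PI3K inhibitors were screened at clinically achievable concentrations decreasing by half-log, and spheroid viability was recorded.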
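Note: spheroids exposed to agents for 7 days before viability read.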
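Throughout, for viability, T/C: 100% = DMSO vehicle treated spheroids.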

- IC50 (second compound 0.0316 µM): > 10 µM
- IC50 (second compound 0.1 µM): > 10 µM
- IC50 (second compound 0.316 µM): > 10 µM
- IC50 (second compound 1 µM): > 10 µM
- IC50 (second compound 3.16 µM): > 10 µM
- IC50 (second compound 10 µM): > 10 µM
Structure (SMILES): CNC(=O)c1ccc(N2C(=S)N(c3ccc(C#N)c(C(F)(F)F)c3)C(=O)C2(C)C)cc1F + CC(Nc1ncnc2nc[nH]c12)c1cc2cccc(Cl)c2c(=O)n1-c1ccccc1
- viability, T/C (second compound 0.0316 µM, first compound 0.0316 µM): 94.8%
- viability, T/C (second compound 0.0316 µM, first compound 0.1 µM): 95.8%
- viability, T/C (second compound 0.0316 µM, first compound 0.316 µM): 74.2%
- viability, T/C (second compound 0.0316 µM, first compound 1 µM): 98.4%
- viability, T/C (second compound 0.0316 µM, first compound 3.16 µM): 102%
- viability, T/C (second compound 0.0316 µM, first compound 10 µM): 116%
- viability, T/C (second compound 0.1 µM, first compound 0.0316 µM): 104%
- viability, T/C (second compound 0.1 µM, first compound 0.1 µM): 101%
- viability, T/C (second compound 0.1 µM, first compound 0.316 µM): 100%
- viability, T/C (second compound 0.1 µM, first compound 1 µM): 95.8%
- viability, T/C (second compound 0.1 µM, first compound 3.16 µM): 86.5%
- viability, T/C (second compound 0.1 µM, first compound 10 µM): 124%
- viability, T/C (second compound 0.316 µM, first compound 0.0316 µM): 106%
- viability, T/C (second compound 0.316 µM, first compound 0.1 µM): 114%
- viability, T/C (second compound 0.316 µM, first compound 0.316 µM): 78.8%
- viability, T/C (second compound 0.316 µM, first compound 1 µM): 95.4%
- viability, T/C (second compound 0.316 µM, first compound 3.16 µM): 93.1%
- viability, T/C (second compound 0.316 µM, first compound 10 µM): 101%
- viability, T/C (second compound 1 µM, first compound 0.0316 µM): 94.9%
- viability, T/C (second compound 1 µM, first compound 0.1 µM): 92.2%
- viability, T/C (second compound 1 µM, first compound 0.316 µM): 101%
- viability, T/C (second compound 1 µM, first compound 1 µM): 84.4%
- viability, T/C (second compound 1 µM, first compound 3.16 µM): 122%
- viability, T/C (second compound 1 µM, first compound 10 µM): 117%
- viability, T/C (second compound 3.16 µM, first compound 0.0316 µM): 115%
- viability, T/C (second compound 3.16 µM, first compound 0.1 µM): 79.2%
- viability, T/C (second compound 3.16 µM, first compound 0.316 µM): 91.1%
- viability, T/C (second compound 3.16 µM, first compound 1 µM): 127%
- viability, T/C (second compound 3.16 µM, first compound 3.16 µM): 83.2%
- viability, T/C (second compound 3.16 µM, first compound 10 µM): 96.9%
- viability, T/C (second compound 10 µM, first compound 0.0316 µM): 101%
- viability, T/C (second compound 10 µM, first compound 0.1 µM): 120%
- viability, T/C (second compound 10 µM, first compound 0.316 µM): 107%
- viability, T/C (second compound 10 µM, first compound 1 µM): 90.7%
- viability, T/C (second compound 10 µM, first compound 3.16 µM): 101%
- viability, T/C (second compound 10 µM, first compound 10 µM): 117%

- IC50 (second compound 0.0316 µM): > 3 µM
- IC50 (second compound 0.1 µM): > 3 µM
- IC50 (second compound 0.316 µM): > 3 µM
- IC50 (second compound 1 µM): > 3 µM
- IC50 (second compound 3.16 µM): > 3 µM
- IC50 (second compound 10 µM): > 3 µM
Structure (SMILES): Cn1cnc2c(F)c(Nc3ccc(Br)cc3Cl)c(C(=O)NOCCO)cc21 + CC(Nc1ncnc2nc[nH]c12)c1cc2cccc(Cl)c2c(=O)n1-c1ccccc1
- viability, T/C (second compound 0.0316 µM, first compound 0.00949 µM): 73.3%
- viability, T/C (second compound 0.0316 µM, first compound 0.03 µM): 89.5%
- viability, T/C (second compound 0.0316 µM, first compound 0.0949 µM): 69.2%
- viability, T/C (second compound 0.0316 µM, first compound 0.3 µM): 63.5%
- viability, T/C (second compound 0.0316 µM, first compound 0.949 µM): 68%
- viability, T/C (second compound 0.0316 µM, first compound 3 µM): 60.6%
- viability, T/C (second compound 0.1 µM, first compound 0.00949 µM): 79.8%
- viability, T/C (second compound 0.1 µM, first compound 0.03 µM): 62.7%
- viability, T/C (second compound 0.1 µM, first compound 0.0949 µM): 70.8%
- viability, T/C (second compound 0.1 µM, first compound 0.3 µM): 55.8%
- viability, T/C (second compound 0.1 µM, first compound 0.949 µM): 64.2%
- viability, T/C (second compound 0.1 µM, first compound 3 µM): 62.1%
- viability, T/C (second compound 0.316 µM, first compound 0.00949 µM): 86.9%
- viability, T/C (second compound 0.316 µM, first compound 0.03 µM): 64.5%
- viability, T/C (second compound 0.316 µM, first compound 0.0949 µM): 58.6%
- viability, T/C (second compound 0.316 µM, first compound 0.3 µM): 59.5%
- viability, T/C (second compound 0.316 µM, first compound 0.949 µM): 60.5%
- viability, T/C (second compound 0.316 µM, first compound 3 µM): 61.2%
- viability, T/C (second compound 1 µM, first compound 0.00949 µM): 75.2%
- viability, T/C (second compound 1 µM, first compound 0.03 µM): 75.3%
- viability, T/C (second compound 1 µM, first compound 0.0949 µM): 65.1%
- viability, T/C (second compound 1 µM, first compound 0.3 µM): 67%
- viability, T/C (second compound 1 µM, first compound 0.949 µM): 58.5%
- viability, T/C (second compound 1 µM, first compound 3 µM): 53.5%
- viability, T/C (second compound 3.16 µM, first compound 0.00949 µM): 78.2%
- viability, T/C (second compound 3.16 µM, first compound 0.03 µM): 74.7%
- viability, T/C (second compound 3.16 µM, first compound 0.0949 µM): 60.6%
- viability, T/C (second compound 3.16 µM, first compound 0.3 µM): 59.6%
- viability, T/C (second compound 3.16 µM, first compound 0.949 µM): 56.2%
- viability, T/C (second compound 3.16 µM, first compound 3 µM): 50.6%
- viability, T/C (second compound 10 µM, first compound 0.00949 µM): 72.7%
- viability, T/C (second compound 10 µM, first compound 0.03 µM): 71.8%
- viability, T/C (second compound 10 µM, first compound 0.0949 µM): 67.4%
- viability, T/C (second compound 10 µM, first compound 0.3 µM): 60.7%
- viability, T/C (second compound 10 µM, first compound 0.949 µM): 57.5%
- viability, T/C (second compound 10 µM, first compound 3 µM): 51.2%
